Measurements as given in ChEMBL document CHEMBL1156829 (Proc Natl Acad Sci U S A, 2008).

Tests used:
[1] = NOVARTIS: Cytotoxicity against human hepatocellular carcinoma cell line (Huh7); format: toxicity, cell-based, Huh-7; settings: Huh7 cells (hepatocellular carcinoma cell line)
[2] = tested on: Plasmodium falciparum; assay: NOVARTIS: Inhibition of Plasmodium falciparum 3D7 (drug-susceptible) proliferation in erythrocyte-based infection assay; format: functional, organism-based; settings: Plasmodium falciparum, 3D7
[3] = tested on: Plasmodium falciparum; assay: NOVARTIS: Inhibition of Plasmodium falciparum W2 (drug-resistant) proliferation in erythrocyte-based infection assay; format: functional, organism-based; settings: Plasmodium falciparum, W2; read-out: EC50

Structure (SMILES)	CC50 [1] [µM]	EC50 [2] [µM]	EC50 [3] [µM]
N=c1c2ccccc2nnn1-c1cccc(C(F)(F)F)c1	> 10	0.134	0.308
COc1ccc(CNC(=O)C(Cc2c[nH]c3ccccc23)N2CCS(=O)(=O)CC2)cc1 (configuration not stated)	8.04	0.851	0.784
COc1cc(OC)cc(C(=O)NCc2n[nH]c(=S)n2-c2ccc(Br)cc2)c1	> 100	0.325	0.252
CCOC(=O)c1c(NC(C)=O)sc2c(O)c(CNC3CCCCC3)ccc12	> 100	0.0805	0.0214
O=C(Nc1ccc(Cl)cc1)Nc1ccc(Br)cn1	> 100	> 12.5	0.712
COc1cc(Nc2cncc(-c3ccncc3)n2)cc(OC)c1OC	> 100	1.08	1.42
CCC(Nc1ccc(OC)cc1)=C1C(=O)CC(C)(C)CC1=O	> 100	> 4.14	3.95
COc1ccc(OC)c(-c2csc(N(CCCN(C)C)C(=O)Cc3ccccc3)n2)c1	17.7	4.05	3.43
CCOC(=O)C1(Cc2ccc(OC)cc2)CCN(C(=O)c2scc3c2OCCO3)CC1	> 100	0.264	0.199
CCCCN(CCCC)S(=O)(=O)c1ccc(NC(=O)c2ccco2)cc1	> 65.7	1.43	0.637
CC(=O)Nc1ccc(Oc2ccc(C(c3ccccc3)(c3ccccc3)c3ccc(Oc4ccc(NC(C)=O)cc4)cc3)cc2)cc1	> 10	0.36	0.747
Oc1ccccc1Nc1nc(-c2ccccc2O)nc2ccccc12	> 100	0.577	0.136
CCCCCN(C(=O)c1ccc(Br)cc1)C(CC)c1nc2ccccc2c(=O)n1-c1ccccc1OC (configuration not stated)	> 4.4	1.02	0.633
Cc1ccc(C)c(Nc2nc(NCc3ccccc3)c3ccccc3n2)c1	14.5	0.246	0.0902
CC(=O)N(C1=C(N2CCCC2)C(=O)c2ccccc2C1=O)c1ccc(F)cc1	25.8	0.646	0.0759
Cc1cc(N2CCC(C)CC2)nc2ccc(NC(=O)c3ccc([N+](=O)[O-])o3)cc12	21.9	1.66	2.14
CC(=O)c1cccc(S(=O)(=O)NCCCNc2nc3cc(C)cc(C)c3cc2C#N)c1	> 100	1.15	0.698

Structure (SMILES)	CC50 [1] [µM]	EC50 [2] [µM]	EC50 [3] [µM]
CN(C)CCNc1ncnc2c1[nH]c1ccc(Br)cc12	21.1	0.1	0.476
CCc1ccc(NC(=O)c2sc3nc(N)c(C#N)c(-c4ccc(OC)c(OC)c4)c3c2N)cc1	> 100	5.81	3.99
CCOC(=O)C1=CN(c2cc(C)ccc2C)C=C(C(=O)OCC)C1c1ccccc1OC	> 100	4.43	1.28
Cc1ccccc1[S+]([O-])Cc1ccc(C(=O)N2CCN(c3ccccn3)CC2)o1 (configuration not stated)	> 42	> 7.13	1.66
COC(=O)C1=C(C)NC(=Cc2cc(C)n(-c3ccc(Cl)c(Cl)c3)c2C)C1=O	> 100	6.9	6.32
Oc1c(CN2CCCCC2)ccc2ccccc12	> 100	5.63	0.727
COCCN1C(=O)C(O)=C(C(=O)c2ccccc2)C1c1ccccc1[N+](=O)[O-] (configuration not stated)	> 100	> 12.5	1.71
Oc1c(C(Nc2ccccn2)c2cccc(Oc3ccccc3)c2)ccc2cccnc12 (configuration not stated)	62.8	0.328	0.32
COc1ccc(/C=C/C(=O)Nc2ccc(S(=O)(=O)N3CCOCC3)cc2)cc1	> 10	> 1.62	0.891
CCn1c(SCCNC(=O)CC(C)C)nc(-c2ccccc2)c1-c1ccccc1	> 9.92	> 1.25	> 0.922
CC(=O)N(C)C1=C(N2CCCC2)C(=O)c2ccccc2C1=O	15.1	0.516	0.299
CC(C)CCNCC(O)Cn1c2ccccc2c2ccccc21 (configuration not stated)	8.06	0.201	0.0323
COC(=O)C(C)NC(=O)c1ccc(F)cc1 (configuration not stated)	> 10	> 1.25	0.681
COc1ccc(C2CC(=O)C3=C(C2)NC(C)=C(C(=O)OC(C)C)C3c2ccccc2F)cc1OC (configuration not stated)	7.32	0.0347	0.0332
CC1(C)N=C(N)N=C(N)N1c1ccc(I)cc1	> 100	0.00723	> 12.5
CC(C)(C)CC(C)(C)Nc1c(-c2ccccc2OC(=O)c2ccccc2F)nc2ccccn12	> 10	1.3	0.0979
COc1ccc2nc3cc(Cl)ccc3c(Nc3ccc(O)cc3)c2c1	> 10	0.809	0.845
